This note sets out measurements from patent US20240376097A1, “BCL-2 Inhibitor” (BeiGene Ltd., priority 2020, published 2024).

Test [1] has as its system BCL-2 G101V knock-in cell line H96 (derive from RS4;11). As to the kind of experiment: Bcl 2-G101V Knock-In RS4;11 Cell Proliferation Assay. Format: cell-based. As to conditions: Homo sapiens, RS4;11 Bcl-2 G101V knock-in clone H96, 48 hrs, CellTiter-GLO, read-out: Cellular proliferation assay (IC50, nM) RS4. The method, boiled down: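 CellTiter-Glo luminescence after 48 h, 37 °C compound treatment (10 concentrations, maximum 1 μM or 10 μM) gave mean IC50 values. Cells were 50,000 per well of H96, a BCL2-G101V knock-in single clone derived from RS4;11 by Cas9 editing.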
On the technique in general: In ATP-based viability assays light output follows the ATP content of the culture.

The test system of test [2] is recombinant human Bcl-2-G101V protein. As to the kind of experiment: Bcl-2-G101V TR-FRET Assay. Format: binding. As to conditions: ratio of biochemical IC50 Bcl-2 G101V / Bcl-2 WT. The method, boiled down:
(§1)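 TR-FRET read at excitation 337 nm with emission at 490 nm and 520 nm. Inhibition of Bcl-2-G101V binding to its ligand across increasing compound concentrations was calculated from the 490/520 nm fluorescence ratio, and IC50 values came from four-parameter logistic fits.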
(In general: Time-resolved FRET reads energy transfer from a long-lived donor to a nearby acceptor.)

Test [3] concerns the target recombinant human Bcl-2-G101V protein (Homo sapiens (Human), UniProt P10415, G101V). As to the kind of experiment: Bcl-2-G101V TR-FRET Assay. It is filed as binding. To be noted: Bcl-2 G101V mutant, TR-FRET; read-out: Biochemical assay (IC50, nM) Bcl-2 G101V. Put shortly: as §1
Test [4] addresses Recombinant human Bcl-2 protein (Homo sapiens (Human), UniProt P10415). As to the kind of experiment: Bcl-2 TR-FRET Assay. Format: binding. To be noted: Bcl-2 wild type, TR-FRET; read-out: Biochemical assay (IC50, nM) Bcl-2 WT. The method, boiled down:
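Displacement of FITC-labelled Bak peptide (0.5 nM) from 0.05 nM human Bcl-2, detected by TR-FRET with Tb-cryptate anti-6His antibody after 1 h at room temperature. Compounds, 10-point series, preincubated 0.5 h with protein in 20 mM potassium phosphate pH 7.5, 50 mM NaCl. IC50s fitted by four-parameter logistic.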

Test [5] relates to RS4;11 (BCL-2 dependent acute lymphoblastic leukemia cell line). As to the kind of experiment: RS4;11 Cell Proliferation Assay. Format: cell-based. To be noted: Homo sapiens, RS4-11, RS4;11 cells, read-out: Cellular proliferation assay (IC50, nM) RS4. The method, boiled down:
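Viability measured via CellTiter-Glo luminescence after a 48 h, 37 °C exposure to compounds (10 points, highest 1 μM). Seeding was 50,000 RS4;11 cells per well in 10% FBS RPMI-1640; IC50 given as mean.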

The structures appear in SMILES notation.

Turning to `COc1ccc(CN2CCN(C3CC4(CCN(c5ccc(C(=O)NS(=O)(=O)c6ccc(NCC7CCOCC7)c([N+](=O)[O-])c6)c(Oc6cnc7[nH]ccc7c6)c5)CC4)C3)C(c3ccccc3C)C2)cc1` (stereo not drawn) [Example 38], the IC50 worked out at 37.5 nM in test [1], 4.1 nM in test [3], 0.053 nM in test [4] and 2.5 nM in test [5]. Also, in test [2], the “Ratio of Bcl-2 G101V/WT” value is given as 77.4.
As to `COc1cccc(CN2CCN(C3CC4(CCN(c5ccc(C(=O)NS(=O)(=O)c6ccc(NC[C@H]7CC[C@](C)(O)CC7)c([N+](=O)[O-])c6)c(Oc6cnc7[nH]ccc7c6)c5)CC4)C3)C(c3ccccc3C(C)C)C2)c1` (stereo partly drawn) [Example 44, 2-((1H-pyrrolo[2,3-b]pyridin-5-yl)oxy)-N-((4-((((1r,4r)-4-hydroxy-4-methylcyclohexyl)methyl)amino)-3-nitrophenyl)sulfonyl)-4-(2-(2-(2-isopropylphenyl)-4-(3-methoxybenzyl)piperazin-1-yl)-7-azaspiro[3.5]nonan-7-yl) benzamide], the IC50 worked out at 3.31 nM in test [1], 0.84 nM in test [3], 0.3 nM in test [4] and 0.5 nM in test [5]. Moreover, the “Ratio of Bcl-2 G101V/WT” value in test [2] turned out to be 2.8.
Turning to `CC(C)c1ccccc1C1CN(Cc2ccc3c(c2)CCCC3)CCN1C1CC2(CCN(c3ccc(C(=O)NS(=O)(=O)c4ccc(NC[C@H]5CC[C@](C)(O)CC5)c([N+](=O)[O-])c4)c(Oc4cnc5[nH]ccc5c4)c3)CC2)C1` (stereo partly drawn) [Example 54, 2-((1H-pyrrolo[2,3-b]pyridin-5-yl)oxy)-N-((4-((((1r,4r)-4-hydroxy-4-methylcyclohexyl)methyl)amino)-3-nitrophenyl)sulfonyl)-4-(2-(2-(2-isopropylphenyl)-4-((5,6,7,8-tetrahydronaphthalen-2-yl)methyl)piperazin-1-yl)-7-azaspiro[3.5]nonan-7-yl)benzamide], the IC50 was 11.7 nM in test [1], 4.7 nM in test [3], 0.76 nM in test [4] and 0.79 nM in test [5]. Besides, the “Ratio of Bcl-2 G101V/WT” value in test [2] worked out at 6.2.
Consider `CC(C)c1ccccc1C1CN(CC2CCOc3ccccc32)CCN1C1CC2(CCN(c3ccc(C(=O)NS(=O)(=O)c4ccc(NC[C@H]5CC[C@](C)(O)CC5)c([N+](=O)[O-])c4)c(Oc4cnc5[nH]ccc5c4)c3)CC2)C1` (stereo partly drawn) [Example 57, 2-((1H-pyrrolo[2,3-b]pyridin-5-yl)oxy)-4-(2-(4-(chroman-4-ylmethyl)-2-(2-isopropylphenyl)piperazin-1-yl)-7-azaspiro[3.5]nonan-7-yl)-N-((4-((((1r,4r)-4-hydroxy-4-methylcyclohexyl)methyl)amino)-3-nitrophenyl)sulfonyl)benzamide], for which the IC50 in test [1] came to 8.9 nM; in test [3], 2.2 nM; in test [4], 0.44 nM; in test [5], 0.8 nM. For the same compound, the “Ratio of Bcl-2 G101V/WT” value in test [2] was determined as 5.0.
For `CC(C)c1ccccc1C1CN(C(=O)c2ccccc2)CCN1C1CC2(CCN(c3ccc(C(=O)NS(=O)(=O)c4ccc(NC[C@H]5CC[C@](C)(O)CC5)c([N+](=O)[O-])c4)c(Oc4cnc5[nH]ccc5c4)c3)CC2)C1` (stereo partly drawn) [Example 60], the IC50 amounted to 2.52 nM in test [1], 1.6 nM in test [3], 0.057 nM in test [4] and 0.35 nM in test [5]. The “Ratio of Bcl-2 G101V/WT” value in test [2] stood at 28.1.
`CC(C)c1ccccc1C1CN(S(=O)(=O)c2ccccc2)CCN1C1CC2(CCN(c3ccc(C(=O)NS(=O)(=O)c4ccc(NC[C@H]5CC[C@](C)(O)CC5)c([N+](=O)[O-])c4)c(Oc4cnc5[nH]ccc5c4)c3)CC2)C1` (stereo partly drawn) [Example 62, 2-((1H-pyrrolo[2,3-b]pyridin-5-yl)oxy)-N-((4-((((1r,4r)-4-hydroxy-4-methylcyclohexyl)methyl)amino)-3-nitrophenyl)sulfonyl)-4-(2-(2-(2-isopropylphenyl)-1-(phenylsulfonyl)piperazin-1-yl)-7-azaspiro[3.5]nonan-7-yl) benzamide]: the IC50 in test [1] is 28.4 nM; in test [3] it was 13 nM; in test [4], 0.33 nM; in test [5], 2.4 nM. The “Ratio of Bcl-2 G101V/WT” value in test [2] turned out to be 39.4.
On the same counts, the results for `CC(C)c1ccccc1C1CN(S(C)(=O)=O)CCN1C1CC2(CCN(c3ccc(C(=O)NS(=O)(=O)c4ccc(NC[C@H]5CC[C@](C)(O)CC5)c([N+](=O)[O-])c4)c(Oc4cnc5[nH]ccc5c4)c3)CC2)C1` (stereo partly drawn) [Example 66, 2-((1H-pyrrolo[2,3-b]pyridin-5-yl)oxy)-N-((4-((((1r,4r)-4-hydroxy-4-methylcyclohexyl)methyl)amino)-3-nitrophenyl)sulfonyl)-4-(2-(2-(2-isopropylphenyl)-4-(methylsulfonyl)piperazin-1-yl)-7-azaspiro[3.5]nonan-7-yl) benzamide] are 6.61 nM, 1.6 nM, 0.034 nM, 0.6 nM and 47.1.
With `CCc1ccccc1C1CN(Cc2ccc(OC)cc2)CCN1C1CC2(CCN(c3ccc(C(=O)NS(=O)(=O)c4ccc(NC[C@H]5CC[C@](C)(O)CC5)c([N+](=O)[O-])c4)c(Oc4cnc5[nH]ccc5c4)c3)CC2)C1` (stereo partly drawn) [Example 76, 2-((1H-pyrrolo[2,3-b]pyridin-5-yl)oxy)-4-(2-(2-(2-ethylphenyl)-4-(4-methoxybenzyl)piperazin-1-yl)-7-azaspiro[3.5]nonan-7-yl)-N-((4-((((1r,4r)-4-hydroxy-4-methylcyclohexyl)methyl)amino)-3-nitrophenyl)sulfonyl)benzamide], the IC50 is 6.5 nM in test [1], 1.3 nM in test [3], 0.074 nM in test [4] and 0.69 nM in test [5]. The “Ratio of Bcl-2 G101V/WT” value in test [2] worked out at 17.
On the same counts, the results for `COc1ccc(CN2CCN(C3CC4(CCN(c5ccc(C(=O)NS(=O)(=O)c6ccc(NC[C@H]7CC[C@](C)(O)CC7)c([N+](=O)[O-])c6)c(Oc6cnc7[nH]ccc7c6)c5)CC4)C3)[C@@H](c3ccccc3C(C)C)C2)cc1OC` [Example 81b] are 11.6 nM, 2 nM, 0.074 nM, 2.85 nM and 27.
On the same counts, the results for `COc1ccc(CN(C)C2CCN(C3CC4(CCN(c5ccc(C(=O)NS(=O)(=O)c6ccc(NC[C@H]7CC[C@](C)(O)CC7)c([N+](=O)[O-])c6)c(Oc6cnc7[nH]ccc7c6)c5)CC4)C3)C(c3ccccc3C3CC3)C2)cc1` (stereo partly drawn) [Example 105, 2-((1H-pyrrolo[2,3-b]pyridin-5-yl)oxy)-4-(2-(2-(2-cyclopropylphenyl)-4-((4-methoxybenzyl)(methyl)amino)piperidin-1-yl)-7-azaspiro[3.5]nonan-7-yl)-N-((4-((((1r,4r)-4-hydroxy-4-methylcyclohexyl)methyl)amino)-3-nitrophenyl)sulfonyl)benzamide] are 16.6 nM, 0.25 nM, 0.1 nM, 2.12 nM and 2.5.
For `CCc1cc(CN2CCN(C3CC4(CCN(c5ccc(C(=O)NS(=O)(=O)c6ccc(NC[C@H]7CC[C@](C)(O)CC7)c([N+](=O)[O-])c6)c(Oc6cnc7[nH]ccc7c6)c5)CC4)C3)C(c3ccccc3C(C)C)C2)ccc1OC` (stereo partly drawn) [Example 116, 2-((1H-pyrrolo[2,3-b]pyridin-5-yl)oxy)-4-(2-(4-(3-ethyl-4-methoxybenzyl)-2-(2-isopropylphenyl)piperazin-1-yl)-7-azaspiro[3.5]nonan-7-yl)-N-((4-((((1r,4r)-4-hydroxy-4-methylcyclohexyl)methyl)amino)-3-nitrophenyl)sulfonyl)benzamide] the same measures were 4.76 nM, 2 nM, 0.42 nM, 0.58 nM and 4.7.
`COc1c(Cl)cccc1CN1CCN(C2CC3(CCN(c4ccc(C(=O)NS(=O)(=O)c5ccc(NC[C@H]6CC[C@](C)(O)CC6)c([N+](=O)[O-])c5)c(Oc5cnc6[nH]ccc6c5)c4)CC3)C2)C(c2ccccc2C(C)C)C1` (stereo partly drawn) [Example 119, 2-((1H-pyrrolo[2,3-b]pyridin-5-yl)oxy)-4-(2-(4-(3-chloro-2-methoxybenzyl)-2-(2-isopropylphenyl)piperazin-1-yl)-7-azaspiro[3.5]nonan-7-yl)-N-((4-((((1r,4r)-4-hydroxy-4-methylcyclohexyl)methyl)amino)-3-nitrophenyl)sulfonyl)benzamide]: the IC50 in test [1] was determined as 14.4 nM; in test [3], 3.1 nM; in test [4] it was 0.37 nM; in test [5] it was 1.44 nM. Further, the “Ratio of Bcl-2 G101V/WT” value in test [2] came to 8.5.
